The values that follow come from PMC3955222 (Chembiochem : a European journal of chemical biology, 2013).

SMILES strings stand for the structures.

The assay deals with T1, CODH ICh (Carboxydothermus hydrogenoformans, UniProt P59934).
T1 sequence (P59934 2-636): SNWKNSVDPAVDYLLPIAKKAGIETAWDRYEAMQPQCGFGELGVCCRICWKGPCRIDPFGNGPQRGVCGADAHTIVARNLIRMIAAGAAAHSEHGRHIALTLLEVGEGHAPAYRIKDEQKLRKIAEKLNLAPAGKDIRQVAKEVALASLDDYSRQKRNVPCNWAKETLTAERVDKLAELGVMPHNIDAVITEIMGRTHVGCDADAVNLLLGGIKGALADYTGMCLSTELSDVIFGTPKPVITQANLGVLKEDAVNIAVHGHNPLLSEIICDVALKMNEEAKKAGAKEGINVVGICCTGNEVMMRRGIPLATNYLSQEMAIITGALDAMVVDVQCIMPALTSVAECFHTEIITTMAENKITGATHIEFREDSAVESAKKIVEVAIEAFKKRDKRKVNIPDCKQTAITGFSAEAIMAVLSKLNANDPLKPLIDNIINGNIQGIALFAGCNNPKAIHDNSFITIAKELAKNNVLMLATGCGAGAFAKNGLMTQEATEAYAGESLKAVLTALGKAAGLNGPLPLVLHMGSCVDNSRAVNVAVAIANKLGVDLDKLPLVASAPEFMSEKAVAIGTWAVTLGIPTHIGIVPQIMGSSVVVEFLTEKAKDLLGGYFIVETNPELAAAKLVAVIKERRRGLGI
Type of assay: biochemical.

Regarding `N#CO` [cyanate], the “chronoamperometry, inactivation half-time at 6.7 mM cyanate” value is given as ~ 90 seconds.
